Assays:
[1] = molecular target: BCL2 WT (Homo sapiens (Human), UniProt P10415); experiment: TR-FRET competitive binding assay, BCL2 WT; conditions: Ki determined from IC50, read-out: TR_FRET EKI_Bcl2 WT
Summary of the method: (§1)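 Terbium-labelled N-terminal Halo-fusion BCL2 or BCLXL (E. coli), 0.5 nM, competed against fluorescein-labelled PUMA peptide (2 or 20 nM) for 2 h at 23° C in 50 mM Hepes pH 7.5, 150 mM NaCl, 5% DMSO. TR-FRET 520/495 nm ratio gave IC50 by four-parameter fit; Ki derived from IC50.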

[2] = molecular target: BCL2 G101V (Homo sapiens, UniProt P10415, G101V); experiment: TR-FRET competitive binding assay, BCL2 G101V; conditions: BCL2 G101V; Ki determined from IC50; read-out: TR_FRET EKI_Bcl2 G101V
Summary of the method: as §1

[3] = system: BCL2 G101V; experiment: TR-FRET competitive binding assay, BCL2 G101V; design: species or system human; conditions: ratio Ki BCL2 G101V / Ki BCL2 WT
Summary of the method: as §1

[4] = molecular target: BCL2 D103Y (Homo sapiens, UniProt P10415, D103Y); experiment: TR-FRET competitive binding assay, BCL2 D103Y; conditions: Ki determined from IC50, read-out: TR_FRET EKI_Bcl2 D103Y
Summary of the method: as §1

[5] = molecular target: BCLXL WT (Homo sapiens (Human), UniProt Q07817); experiment: TR-FRET competitive binding assay, BCLXL WT; conditions: for Ki: BCLXL WT, Ki determined from IC50, read-out: TR_FRET EKI BclxL; for TR_FRET EKI BCLxL/WT selectivty ratio: ratio Ki BCLxL / Ki BCL2 WT
Summary of the method: as §1

[6] = system: KMS-12-PE Bcl-2 WT; experiment: In vitro cytotoxicity CellTiter-Glo 48 h, KMS-12-PE Bcl-2 WT; type: cell-based; conditions: C50 = concentration needed to reach 50% of the cellular viability
Summary of the method: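 CTG luminescence read-out; C50 = concentration reaching 50% cellular viability. Cells: KMS-12-PE expressing Bcl-2 WT or G101V (lentiviral, TagRFP-sorted). 11-pt curve, 48 h, 37 °C/5% CO2.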

[7] = system: KMS-12-PE Bcl-2 G101V; experiment: In vitro cytotoxicity CellTiter-Glo 48 h, KMS-12-PE Bcl-2 G101V; type: cell-based; conditions: for Ratio (G101V/WT): C50 KMS-12-PE Bcl-2 G101V over C50 KMS-12-PE Bcl-2 WT; for IC50: CellTiter-Glo, 48 h, C50 = concentration needed to reach 50% of the cellular viability
Protocol: KMS-12-PE (ACC 606) were purchased from the Leibniz-Institute DSMZ (Braunschweig, Germany) and were grown at 37° C. in a humidified atmosphere with […] in media recommended by the suppliers. Lentiviral particles containing Bcl-2 wild type (also named “Bcl2 WT”) and Bcl-2 mutated on G101V (also named “Bcl2 G101V”) were cloned into pcLV-CMV-DEST-IRES-TagRFP. Lentiviral particles (1×106) were mixed with Polybrene at 8 µg/ml and transduced by spinoculation for 1 h at 32° C. and incubated overnight. After 8 days, TagRFP positive-cells were sorted by FACS. BCL2 expression was monitored by immunoblotting using anti-Flag and anti-BCL2 antibodies.
Cellular viability was monitored with the cell viability assay (CellTiter-Glo®) on KMS-12-PE WT and G101V cell lines. The CellTiter-Glo® (CTG) Luminescent Cell Viability Assay (from Promega) is a homogeneous method to determine the number of viable cells in culture based on quantitation of the ATP present, which signals the presence of metabolically active cells.
Dose response of compounds are performed with 10 mM stock solutions (DMSO), 11-points curve, in a 384-well compound plate. The assay plate is prepared by stamping 40 nL from compound dilution plate of all different concentrations (e.g. 10 mM to have final […] assay test) into a cell culture microplate, using Echo acoustic liquid handling (Labcyte, Beckman). 40 μl of cell solution is added and cells are incubated with compounds for 48 h at 37° C., 5% CO2. CTG was added to the cells (according to the manufacturer instructions) and luminescence intensity was recorded using the Pherastar plate reader (BMG).
This assay provides in vitro cellular potency of the tested Bcl-2 inhibitors, measuring the C50, defined as the concentration needed to reach 50% of the cellular viability.

Sequence of BCLXL WT (Q07817 other isoform, or with tags, fused parts or gaps): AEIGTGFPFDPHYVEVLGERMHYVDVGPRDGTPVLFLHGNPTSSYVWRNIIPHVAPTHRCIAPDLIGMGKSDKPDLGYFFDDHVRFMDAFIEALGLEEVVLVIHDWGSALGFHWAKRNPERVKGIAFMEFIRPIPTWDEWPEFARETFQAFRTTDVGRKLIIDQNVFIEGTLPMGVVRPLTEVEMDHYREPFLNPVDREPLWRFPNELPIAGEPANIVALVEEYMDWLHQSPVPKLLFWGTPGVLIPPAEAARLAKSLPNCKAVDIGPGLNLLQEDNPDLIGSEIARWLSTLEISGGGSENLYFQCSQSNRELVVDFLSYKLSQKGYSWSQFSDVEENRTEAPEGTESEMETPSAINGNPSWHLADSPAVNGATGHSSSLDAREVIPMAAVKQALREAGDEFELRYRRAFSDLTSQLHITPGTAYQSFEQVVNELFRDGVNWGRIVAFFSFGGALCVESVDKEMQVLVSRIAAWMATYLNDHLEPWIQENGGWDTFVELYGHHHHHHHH

Compound | Ki [1] | Ki [2] | TR_FRET EKI G101V/WT selectivty ratio [3] | Ki [4] | Ki [5] | TR_FRET EKI BCLxL/WT selectivty ratio [5] | IC50 [6] | Ratio (G101V/WT) [7] | IC50 [7] | IC50 ([6]; Homo sapiens, KMS-12-PE) | IC50 ([7]; Homo sapiens, KMS-12-PE)
Cc1c(N(C(=O)c2cc(-c3cc4c(cc3C(=O)N3Cc5ccccc5C[C@H]3CN3CCCCC3)CN(C(=O)Cc3ccc(OCCC5COCCO5)cc3F)CC4)n(C)c2C)c2ccc(O)cc2)cc(C#N)n1C (single isomer, unassigned) [Example 175, N-(5-cyano-1,2-dimethyl-pyrrol-3-yl)-5-[2-[2-[4-[2-((2R or S)-1,4-dioxan-2-yl)ethoxy]-2-fluoro-phenyl]acetyl]-7-[(3S)-3-(1-piperidylmethyl)-3,4-dihydro-1H-isoquinoline-2-carbonyl]-3,4-dihydro-1H-isoquinolin-6-yl]-N-(4-hydroxyphenyl)-1,2-dimethyl-pyrrole-3-carboxamide] | 0.08 nM | 0.5 nM | 7.0 | 0.34 nM | 3.1 nM | 40.8 | 0.0041 µM | 6.335 | 0.0261 µM |  | 
Cc1c(N(C(=O)c2cc(-c3cc4c(cc3C(=O)N3Cc5ccccc5C[C@H]3C)CN(C(=O)Cc3ccc(Oc5ccccc5)cc3)CC4)n(C)c2C)c2ccc(O)cc2)cc(C#N)n1C [Example 10, N-(5-cyano-1,2-dimethyl-1H-pyrrol-3-yl)-N-(4-hydroxyphenyl)-1,2-dimethyl-5-{7-[(3R)-3-methyl-1,2,3,4-tetrahydroisoquinoline-2-carbonyl]-2-[2-(4-phenoxyphenyl)acetyl]-1,2,3,4-tetrahydroisoquinolin-6-yl}-1H-pyrrole-3-carboxamide] | 2.2 nM | 5.7 nM | 2.6 | 2.98 nM | 31.2 nM | 14.2 |  | 4.58 |  | 0.014 µM | 0.0641 µM
Cc1c(N(C(=O)c2cc(-c3cc4c(cc3C(=O)N3Cc5ccccc5C[C@H]3C)CN(C(=O)Cc3ccc(F)cc3F)CC4)n(C)c2C)c2ccc(O)cc2)cc(C#N)n1C [Example 11, N-(5-cyano-1,2-dimethyl-1H-pyrrol-3-yl)-5-{2-[2-(2,4-difluorophenyl)acetyl]-7-[(3R)-3-methyl-1,2,3,4-tetrahydroisoquinoline-2-carbonyl]-1,2,3,4-tetrahydroisoquinolin-6-yl}-N-(4-hydroxyphenyl)-1,2-dimethyl-1H-pyrrole-3-carboxamide] | 0.34 nM | 1.3 nM | 3.8 | 0.55 nM | 4.8 nM | 14.1 |  | 7.05 |  | 0.0035 µM | 0.0249 µM
Cc1c(N(C(=O)c2cc(-c3cc4c(cc3C(=O)N3Cc5ccccc5C[C@H]3C)CN(C(=O)Cc3ccccc3)CC4)n(C)c2C)c2ccc(O)cc2F)cc(C#N)n1C [Example 13, N-(5-cyano-1,2-dimethyl-1H-pyrrol-3-yl)-N-(2-fluoro-4-hydroxyphenyl)-1,2-dimethyl-5-{7-[(3R)-3-methyl-1,2,3,4-tetrahydroisoquinoline-2-carbonyl]-2-(2-phenylacetyl)-1,2,3,4-tetrahydroisoquinolin-6-yl}-1H-pyrrole-3-carboxamide] | 1 nM | 2 nM | 2.0 | 2.35 nM | 4.6 nM | 4.6 |  | 5.37 |  | 0.0131 µM | 0.0704 µM
Cc1c(N(C(=O)c2cc(-c3cc4c(cc3C(=O)N3Cc5ccccc5C[C@H]3C)CN(C(=O)c3n[nH]c5ccccc35)CC4)n(C)c2C)c2ccc(O)cc2)cc(C#N)n1C [Example 15, N-(5-cyano-1,2-dimethyl-1H-pyrrol-3-yl)-N-(4-hydroxyphenyl)-5-[2-(1H-indazole-3-carbonyl)-7-[(3R)-3-methyl-1,2,3,4-tetrahydroisoquinoline-2-carbonyl]-1,2,3,4-tetrahydroisoquinolin-6-yl]-1,2-dimethyl-1H-pyrrole-3-carboxamide] | 0.67 nM | 6.1 nM | 9.1 | 3.01 nM | 8.4 nM | 12.5 |  | 4.3 |  | 0.0166 µM | 0.0714 µM
